This is an account of results in PMC7763995 (Molecules, 2020).

One test deals with mouse brain homogenate. Nature of the test: TBARS assay, spontaneous lipid peroxidation in mouse brain homogenate. To be noted: read-out: Inhibition of Spontaneous Lipid Peroxidation in Mice Brain Homogenate, TBARS Assay, IC50. The procedure: The work was carried out in accordance with the EU Directive 2010/63/EU. Hybrid BDF1 mice (about 6 months old) were sacrificed by decapitation. Each brain was rapidly excised, frozen in liquid nitrogen, and stored at −80°C until use. The brains were thawed and homogenized using a Wisd WiseTis HG-15D homogenizer for 2 min in a buffer (0.01 M PBS, pH 7.4 or 0.1 M Tris-HCl, pH 7.4). Protein concentrations were determined by the Lowry method.
The procedure was performed in accordance with the method of Ohkawa et al. with minor modifications. Briefly, mouse brain homogenate (protein concentration 1 mg/mL) in PBS (0.1 M, pH 7.4) was incubated for 30 min at 37°C with tested conjugates, and the reaction was terminated by addition of 0.4 mL of 17% (w/v) trichloroacetic acid (Sigma-Aldrich). Following centrifugation for 20 min at 1300× g, 0.5 mL of 0.8% (w/v) of TBA (Sigma-Aldrich) was added to 1 mL of supernatant, heated for 30 min at 95°C and then cooled to RT. The optical density of the TBARS, which corresponds to the produced MDA, was measured at 532 nm against a blank using an Agilent Cary 60 UV-Vis spectrophotometer (Agilent, Santa Clara, CA, USA). The MDA concentration was calculated using an extinction coefficient of 1.56 × 10^5 M^−1cm^−1. Trolox and BHT were used as reference antioxidants. Compounds were dissolved in DMSO (Sigma-Aldrich) and tested in a concentration range 0.01–100 μM. All compounds were examined at least in triplicate.

Test [1] in a line: ABTS radical cation scavenging activity assay. Conditions: 1 h incubation. The procedure:
Radical scavenging activity of the compounds was assessed using the ABTS radical decolorization assay with some modifications. ABTS was purchased from Tokyo Chemical Industry Co., Ltd. (Tokyo, Japan), potassium persulfate (dipotassium peroxodisulfate), Trolox (6-hydroxy-2,5,7,8-tetramethychroman-2-carboxylic acid), and HPLC-grade ethanol were obtained from Sigma-Aldrich. Aqueous solutions were prepared using deionized water.
The solution of cation radical ABTS^•+ was produced by incubation of ABTS with potassium persulfate in deionized water for 12–16 h at room temperature in the dark. Radical scavenging capacity of the compounds was analyzed by mixing 10 μL of compound with 240 μL of ABTS^•+ working solution in ethanol (100 μM final concentration). The reaction was monitored for an hour with an interval of 5–10 min. Data are given for 1 h of incubation of compounds with ABTS^•+. The reduction in absorbance was measured spectrophotometrically at 734 nm using a xMark microplate UV/VIS microplate spectrophotometer (Bio-Rad, Hercules, CA, USA).
Ethanol blanks were run in each assay. Values were obtained from three replicates of each sample and three independent experiments. Standard antioxidants Trolox and BHT were used as reference compounds.
Antioxidant capacity as Trolox equivalent (TEAC) values was determined as the ratio between the slopes obtained from the linear correlation of the ABTS radical absorbance with the concentrations of tested compounds and Trolox. […] The compounds were tested in the concentration range of 0.1–100 µM.

The target of the next test is T1, Equine serum BChE (Equus caballus, UniProt P81908).
T1 construct: equine serum BChE; purchased Sigma-Aldrich; host or cells: equine serum
T1 sequence (P81908 whole entry): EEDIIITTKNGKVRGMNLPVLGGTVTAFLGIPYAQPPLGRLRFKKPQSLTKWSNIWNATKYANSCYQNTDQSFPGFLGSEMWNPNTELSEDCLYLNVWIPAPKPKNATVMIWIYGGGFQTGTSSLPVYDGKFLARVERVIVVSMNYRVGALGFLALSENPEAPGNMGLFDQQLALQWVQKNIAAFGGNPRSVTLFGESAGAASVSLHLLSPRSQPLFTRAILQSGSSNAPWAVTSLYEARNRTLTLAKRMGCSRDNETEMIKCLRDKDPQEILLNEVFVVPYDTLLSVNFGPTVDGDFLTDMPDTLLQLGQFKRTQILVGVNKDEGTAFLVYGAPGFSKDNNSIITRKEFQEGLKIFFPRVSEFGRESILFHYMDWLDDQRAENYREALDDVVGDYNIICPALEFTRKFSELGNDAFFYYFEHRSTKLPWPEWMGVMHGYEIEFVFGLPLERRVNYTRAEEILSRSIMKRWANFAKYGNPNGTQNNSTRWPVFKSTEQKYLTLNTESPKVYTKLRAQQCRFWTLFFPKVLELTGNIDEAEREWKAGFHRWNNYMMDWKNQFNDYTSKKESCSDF
Nature of the test: Kinetic study of BChE inhibition, steady-state inhibition constants. Format: biochemical. The procedure: Mechanisms of human erythrocyte AChE and equine serum BChE inhibition were assessed via a thorough analysis of enzyme kinetics. Residual activity was measured following 5 min incubation at 25°C (for temperature equilibration) with three increasing concentrations of inhibitor and six decreasing substrate concentrations. Substrate was added immediately after the 5 min incubation with inhibitor and the rates of absorption were monitored at 412 nm using a FLUOStar OPTIMA microplate reader.

Each structure is given as a SMILES string.

Broadly, the IC50 is the concentration that gives 50% inhibition. For orientation: Ki means the dissociation constant of the complex between target and ligand, obtained from inhibition or displacement. In the case of `CC(C)(C)c1cc(C=NCCNc2c3c(nc4ccccc24)CCCCC3)cc(C(C)(C)C)c1O` [Compound 7c, 2,6-Di-tert-butyl-4-{[2-(7,8,9,10-tetrahydro-6H-cyclohepta[b]quinolin-11-ylamino)-ethylimino]-methyl}-phenol], the IC50 with mouse brain homogenate amounted to 10.4 ± 0.7 µM; in test [1], 17.8 ± 1.6 µM. In test [1] (ratio of slopes test compound/Trolox), the “ABTS^•+-Scavenging Activity, TEAC” value was 1.11 ± 0.04. Also, the “αKi (noncompetitive component), BChE” value on Equine serum BChE (Lineweaver-Burk plots) came out at 0.437 ± 0.010 µM. On Equine serum BChE (Lineweaver-Burk plots, read-out: Ki (competitive component), BChE), the Ki was determined as 0.164 ± 0.005 µM. Also, on Equine serum BChE (changes in both Km and Vmax), the “Mechanism of BChE inhibition” value is on record as “mixed type of reversible inhibition”.
